For 80 molecules, RP-LC retention time results are on record in the METLIN SMRT retention time set (Domingo-Almenara et al. 2019).

The series in a line: gradient 5% acetonitrile 3 min, to 50% in 2 min, to 85% in 15 min, held 3 min, 100 µL/min. The conditions noted are these: column: Zorbax Extend-C18 2.1 x 50 mm; eluents: water / acetonitrile, 0.1% formic acid. An outline of the steps:
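In both positive and negative ionization mode, a quadrupole time-of-flight mass spectrometer coupled to HPLC analyzed pure standards run in mixtures of ~100 molecules. The Zorbax Extend-C18 column (2.1 × 50 mm, 1.8 μm) was operated at 100 μL/min with water and acetonitrile, each containing 0.1% formic acid. The dead volume was 40 μL and the dwell volume 900 μL. Retention time came from adduct peaks that were computationally picked and individually inspected by hand.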
`CCn1cc(CC(=O)Nc2ccc(OC)cc2)c2cccnc21` displayed an RP-LC retention time of 696 s. To `O=C(NCc1ccccc1Cl)C1CCN(c2cnc(N3CCCC3)nc2)CC1` belongs 684 s; to `COC(=O)c1ccc(CSc2ncnc3c2cnn3-c2ccc(C)cc2C)o1`, 1070 s; to `Cc1cn2c3c(=O)n(Cc4c(F)cccc4Cl)c(=O)n(C)c3nc2n1C(C)C`, 886 s. To `CC(C)c1noc(C2CCCN(S(C)(=O)=O)CCC(=O)NCC2)n1` (stereo not given) belongs 656 s; to `COc1ccc2[nH]cc(CCNC(=O)c3ccccc3F)c2c1`, 789 s. To `Cc1ccnc(N2CCCC(C(=O)NCCN3CCN(c4ccccc4F)CC3)C2)n1` (stereo not given) belongs 614 s.

`COc1ccc(OC)c(S(=O)(=O)N2CCCC(C)(C(=O)NCc3ccccc3)C2)c1` (stereo not given) returned an RP-LC retention time of 903 s. In turn, `CN1CCN(c2ncc3c(n2)CC(c2cc(F)cc(F)c2)CC3=O)CC1` (stereo not given) gave an RP-LC retention time of 660 s.

The molecule `CCOc1cn(-c2ccc(F)cc2)nc1C(=O)NCc1cccs1` returned an RP-LC retention time of 873 s.

For `Cc1ccn2c(NC(=O)COc3ccccc3)c(-c3ccc(F)cc3)nc2c1`, the RP-LC retention time is 689 s. The result for `CCCc1ccc(S(=O)(=O)N2CCc3c(c(-c4nnc(-c5ccccc5F)o4)nn3C)C2)cc1` reads 1070 s. Molecule `CCc1ccc(NC(=O)Cn2cc(C(=O)N3CCCC3)c(=O)c3ccc(C)nc32)cc1` returned an RP-LC retention time of 759 s. In turn, `CCS(=O)(=O)c1nc2ccc(NS(=O)(=O)c3cccc(F)c3)cc2s1` had an RP-LC retention time of 851 s. With `CCC(=O)N1CCc2cc(N3CC(C(=O)Nc4cc(C)ccc4OC)CC3=O)ccc21` (stereo not given), the RP-LC retention time was 794 s. To `COc1cccc(S(=O)(=O)N2CCC(c3noc(-c4cccc(C)c4)n3)CC2)c1` belongs 1180 s; to `O=C(Nc1ccc(Cl)c(Cl)c1)Nc1ccc([N+](=O)[O-])cn1`, 1100 s.

`CCS(=O)(=O)N1CCC(c2noc(-c3ccccc3)n2)CC1` registered an RP-LC retention time of 897 s.

The molecule `O=C(Nc1ccccc1Br)c1ccc(OC(F)F)cc1` showed an RP-LC retention time of 914 s. To `COCCNC(=O)Cn1c(=O)c2cccn2c2ccccc21` belongs 655 s. Molecule `COc1ccc(NC(=O)Nc2cccc(-c3ccc(N4CCOCC4)nn3)c2)cc1F` came in with an RP-LC retention time of 675 s. In turn, `COc1ncc(C(=O)NCc2ccc(Cl)cc2)cn1` came in with an RP-LC retention time of 751 s.

For `Cc1nsc2ncc(C(=O)N3CCOCC3)c(N3CCC(C(=O)Nc4ccc(Cl)cc4)CC3)c12`, the RP-LC retention time was found to be 846 s. `COc1ccc(CNC(=O)CN2CCN(Cc3ccccc3)C(=O)C2=O)cc1` displayed an RP-LC retention time of 684 s.

Molecule `O=S(=O)(c1cccs1)N1CCN(c2ncccn2)CC1` had an RP-LC retention time of 754 s. The result for `CCOC(=O)c1c(Cc2ccc(Cl)cc2)c[nH]c1C` reads 1010 s. The result for `CN(C)c1nc2ncn3c(=O)n(CC(=O)NCc4ccccc4Cl)nc3c2s1` reads 686 s.

For `Cc1nn(CC(=O)N2CCN(c3ccccn3)CC2)c(=O)c2c1sc1ccccc12`, the RP-LC retention time worked out at 640 s. Molecule `COc1ccc(-c2nnc(CC(=O)NCC3CC3)o2)cc1` gave an RP-LC retention time of 732 s. To `COc1ccc2[nH]cc(CCN3CC(C(=O)Nc4ccc(Br)cc4)CC3=O)c2c1` (stereo not given) belongs 844 s; to `CCN1C(=O)COc2ccc(-c3noc(CNC(=O)C(c4ccccc4)c4ccccc4)n3)cc21`, 975 s. The result for `COc1ccc(OC)c(NC(=O)N2CCc3nc[nH]c3C2)c1` reads 580 s.

For `O=C(NCc1ccccc1Cl)C(=O)NCC1CCN(C(=O)Oc2ccccc2)CC1`, the RP-LC retention time came out at 893 s. The result for `COc1ccc(-c2cc(C(=O)N3CCOCC3)nn2C2CCS(=O)(=O)C2)cc1` (stereo not given) reads 704 s; that for `CCn1c(=O)n(CC(=O)NCCN2CCC(C)CC2)c(=O)c2cnc(-c3ccc(Cl)cc3)nc21`, 776 s. The result for `CO[C@H]1C(=O)N(C2CCN(S(=O)(=O)c3ccc4c(c3)CCC4)CC2)[C@H]1c1ccncc1` reads 704 s; that for `COCCNS(=O)(=O)c1cc(-c2[nH]ncc2C(=O)N2CCCC2)oc1C`, 591 s. The result for `COc1ccc(-c2nc(NCCCN3CCCCC3C)c3ccccc3n2)cc1` (stereo not given) reads 579 s.

In the case of `O=S(=O)(NCc1ccco1)c1cccc(-c2nc(-c3ccccc3)no2)c1`, the RP-LC retention time turned out to be 1050 s. The result for `CN1CCc2c(c(CNC(=O)c3cc(CN4CCOCC4)on3)nn2C)C1` reads 770 s. The result for `COCCNC(=O)C1CCN(c2nccnc2Sc2ccccc2)CC1` reads 764 s. To `CCOc1ccccc1NC(=O)C1(C)Oc2cccnc2N(C)C1=O` (stereo not given) belongs 929 s; to `CCOC(=O)c1cn(CC(=O)Nc2cc(F)ccc2F)nn1`, 740 s; to `O=C(CN1C(=O)CC(c2cccs2)=Nc2ccccc21)Nc1ccc(F)cc1F`, 946 s. In the case of `CCOc1ccccc1CNC(=O)C1CCCN(c2nccnc2Sc2ccc(C)cc2)C1` (stereo not given), the RP-LC retention time was determined as 1190 s. The result for `Cc1ccc(NC(=O)CN2C(=O)CC(C)S(=O)(=O)c3ccccc32)cc1Cl` (stereo not given) reads 894 s. The result for `COc1ccccc1-c1noc(C2CCCN2C(=O)Nc2cc(C)ccc2C)n1` (stereo not given) reads 906 s; that for `COc1ccc(-c2nc(NCCN(Cc3ccco3)C3CCCC3)c3ccccc3n2)cc1`, 604 s; that for `COc1ccc(OC)c(S(=O)(=O)N2CCC(n3cnc4ccc(C)cc4c3=O)CC2)c1`, 881 s.

As to `Cc1sc2ccn(C)c(=O)c2c1C(=O)NCC1CCCCC1`, the RP-LC retention time turned out to be 816 s. The result for `O=C(CN1C(=O)C(C(=O)N2CCCC2)Sc2ccccc21)NCc1ccccc1` (stereo not given) reads 870 s.

As to `COc1ccc(-c2nc(-c3ccc(-c4ccc(Cl)cc4)o3)[nH]c2-c2ccc(OC)cc2)cc1`, the RP-LC retention time amounted to 988 s. To `Cc1noc(-c2nn(C)c3c2CN(C(=O)c2ccccc2Br)CC3)n1` belongs 725 s; to `COc1cc(N)c(Cl)cc1C(=O)NC1CN2CCC1CC2` (stereo not given), 615 s. The result for `CCC(=O)N1c2ccc(S(=O)(=O)N3CCCCC3)cc2CC1C(=O)NCc1ccc(N(C)C)cc1` (stereo not given) reads 691 s; that for `CCOc1ccc(NS(=O)(=O)c2ccccc2-c2nc(-c3ccc(F)cc3)no2)cc1`, 1200 s. As to `CCc1nc(N)n(CC(=O)NCc2ccc(C)cc2)c(=O)c1C`, the RP-LC retention time was determined as 642 s. The result for `Cc1oc(-c2ccccc2)nc1Cn1nnc(C(=O)Nc2cc(F)ccc2F)c1C` reads 1220 s; that for `CCC(=O)N1CCc2cc(N3CC(C(=O)Nc4cccc(F)c4)CC3=O)ccc21` (stereo not given), 763 s; that for `CC(C)(C)CCN1CCC(F)(c2nc(-c3ccccc3)no2)CC1`, 789 s. To `COCCN1C(=O)CCC2(CNC(=O)c3cnc(C)cn3)CCC=C12` (stereo not given) belongs 676 s; to `Brc1ccc(OCc2nnc3sc(-c4ccncc4)nn23)cc1`, 811 s. The result for `CC(NC(=O)Nc1ccc(Br)cc1)C(=O)N1CCc2ccccc21` (stereo not given) reads 941 s. Regarding `CCc1cc(=O)n(CC(=O)N(CC)c2ccccc2)c(N)n1`, the RP-LC retention time was 628 s. The result for `Cc1ccc2oc(N3CCCN(C(=O)c4ccc(-c5noc(C6CC6)n5)cc4)CC3)nc2n1` reads 648 s; that for `Cc1nc2c(c(C)nn2C(C)(C)C)c(C)c1CCC(=O)N1CCN(c2ccccn2)CC1`, 731 s; that for `Cc1ccc(NC(=O)C2CCCN(S(=O)(=O)c3c[nH]c(C(=O)N4CCCCCC4)c3)C2)cc1C` (stereo not given), 871 s. To `c1cc(N2CCSCC2)ncc1-c1noc(CN2CCOCC2)n1` belongs 702 s. The result for `Cc1ccc(Cl)cc1NC(=O)Cn1c(C)nc2c(sc3nc(-c4ccccc4)ccc32)c1=O` reads 1140 s; that for `Cc1ccc(Cn2nc3n(Cc4ccc(F)cc4)c(=O)c4nn(C)cc4n3c2=O)cc1`, 952 s. On to `COc1ccc2c(=O)cc(-c3cccnc3)oc2c1OC`, for which the RP-LC retention time amounted to 763 s. To `CC1CCN(S(=O)(=O)c2cc(C(=O)N3CCN(c4ccc(Cl)cc4)CC3)n(C)c2)CC1` belongs 1100 s. `COCCOC1CCC12CCN(C(=O)c1ocnc1C)CC2` (stereo not given) showed an RP-LC retention time of 686 s.

In the case of `CN(C)S(=O)(=O)c1ccc(NC(=O)Cc2ccc(F)cc2)cc1`, the RP-LC retention time is 780 s. `O=C(NCC1CCOCC1)Nc1ccc(C(F)(F)F)cc1` registered an RP-LC retention time of 734 s. In turn, `CN(C(=O)c1nc(N2CCSCC2)c2cnn(C)c2n1)c1cccc(Cl)c1` came in with an RP-LC retention time of 842 s. To `O=C(O)c1ccccc1-c1nc2ccccc2[nH]1` belongs 537 s; to `CCCOc1ccc(CNC(=O)C2CCCN(c3ncnc4c3oc3ccccc34)C2)cc1` (stereo not given), 889 s; to `O=C(NC1CCCC1)C1CCN(c2nc3ccc(-c4cccnc4)nc3s2)CC1`, 654 s.

As for `Cc1ccc(S(=O)(=O)Nc2n[nH]nc2C(N)=O)cc1`, the RP-LC retention time was 603 s.
